Our source for the IC50 values is patent US20250340557A1, “PYRIMIDINE DERIVATIVE” (ASKA PHARMACEUTICAL CO., LTD., priority 2022, published 2025).

pIC50: −log10 of the molar value. Read-outs that look alike come from different tables or passages of the source.

The experiment addresses T1, human mPGES-1 (Homo sapiens, UniProt O14684).
T1 construct: made in house; host or cells: COS-1 cells (transient transfection; microsomal fraction used as enzyme)
T1 sequence (O14684 1-152): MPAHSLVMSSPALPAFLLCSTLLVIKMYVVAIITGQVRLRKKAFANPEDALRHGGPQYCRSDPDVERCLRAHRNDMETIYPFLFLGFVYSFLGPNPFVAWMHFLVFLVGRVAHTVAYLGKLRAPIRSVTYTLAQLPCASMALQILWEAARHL
In words: Test for mPGES-1 inhibitory activity (microsomal enzyme, PGE2 EIA). In kind it is biochemical. The note with it: 4° C., 4 minutes, read-out: h mPGES1 IC50. On the procedure:
Test Example 1: Test for mPGES-1 Inhibitory Activity
Microsomes were prepared from COS-1 cells transiently transfected with a plasmid containing human mPGES-1 cDNA, and used as mPGES-1 enzyme. The mPGES-1 enzyme was diluted with a sodium phosphate buffer (pH 7.2) containing reduced glutathione (2.5 mM) and EDTA (1 mM), DMSO or a DMSO solution of a test compound (final concentration of DMSO was 2%) was added to the enzyme, and the mixture was preincubated at 4° C. for 15 minutes. Then, PGH2 (Prostaglandin H2) as the substrate was added at a final concentration of 1 μM to start the enzymatic reaction, and after incubation at 4° C. for 4 minutes, a solution of ferric chloride (25 mM) and citric acid (50 mM) was added to terminate the enzymatic reaction. Generated PGE2 (Prostaglandin E2) was measured by using Prostaglandin E2 Express EIA Kit (Cayman Chemical). IC50 values were determined by using a standard method.

The mark [1] stands for this setting: microsomes of COS-1 cells transfected with human mPGES-1 cDNA, PGH2 1 μM, PGE2 by EIA.
Where [2] appears, read: microsomes from COS-1 cells transfected with human mPGES-1 cDNA, substrate PGH2 1 μM, PGE2 measured by EIA.

For `O=c1cc(C(F)F)nc(-c2c(C(F)(F)F)ccc(CNC(=O)[C@H]3C[C@H](OCc4ccc(F)cc4Cl)C3)c2F)[nH]1` [Example 173, trans-3-[(2-chloro-4-fluorobenzyl)oxy]-N-{3-[4-(difluoromethyl)-6-oxo-1,6-dihydropyrimidin-2-yl]-2-fluoro-4-(trifluoromethyl)benzyl}cyclobutane-1-carboxamide], under setting [1], the pIC50 was more than 9.00.
Still for that read-out and setting: then `Cc1cc(=O)[nH]c(-c2c(C(F)(F)F)ccc(CNC(=O)[C@H]3C[C@H](OCc4ccc(F)c(F)c4)C3)c2F)n1` [Example 186, trans-3-[(3,4-difluorobenzyl)oxy]-N-[2-fluoro-3-(4-methyl-6-oxo-1,6-dihydropyrimidin-2-yl)-4-(trifluoromethyl)benzyl]cyclobutane-1-carboxamide], with 8.49; and `CCc1cc(=O)[nH]c(-c2c(C(F)(F)F)ccc(CNC(=O)[C@H]3C[C@H](OCc4ccc(F)c(Cl)c4)C3)c2F)n1` [Example 210, trans-3-[(3-chloro-4-fluorobenzyl)oxy]-N-[3-(4-ethyl-6-oxo-1,6-dihydropyrimidin-2-yl)-2-fluoro-4-(trifluoromethyl)benzyl]cyclobutane-1-carboxamide], with 8.10; and `Cc1nc(-c2c(C(F)(F)F)ccc(CNC(=O)[C@H]3C[C@H](OCc4cc(F)cc(F)c4)C3)c2F)[nH]c(=O)c1F` [Example 221, trans-3-[(3,5-difluorobenzyl)oxy]-N-[2-fluoro-3-(5-fluoro-4-methyl-6-oxo-1,6-dihydropyrimidin-2-yl)-4-(trifluoromethyl)benzyl]cyclobutane-1-carboxamide], with 7.85.
Turning to `O=c1cc(C(F)(F)F)nc(-c2c(C(F)(F)F)ccc(CNC(=O)[C@H]3C[C@H](OCc4ccccc4Cl)C3)c2F)[nH]1` [Example 136, trans-3-[(2-chlorobenzyl)oxy]-N-{2-fluoro-3-[6-oxo-4-(trifluoromethyl)-1,6-dihydropyrimidin-2-yl]-4-(trifluoromethyl)benzyl}cyclobutane-1-carboxamide], the pIC50 under setting [2] was 8.70.
For the compound `Cc1nc(-c2c(C(F)(F)F)ccc(CNC(=O)[C@H]3C[C@H](OCc4ccc(F)c(F)c4)C3)c2F)[nH]c(=O)c1F` [Example 220, trans-3-[(3,4-difluorobenzyl)oxy]-N-[2-fluoro-3-(5-fluoro-4-methyl-6-oxo-1,6-dihydropyrimidin-2-yl)-4-(trifluoromethyl)benzyl]cyclobutane-1-carboxamide], the pIC50 under setting [1] is 7.82.
Regarding `O=C(NCc1ccc(C(F)(F)F)c(-c2nc3c(c(=O)[nH]2)CCC3)c1F)C1CCN(c2ccc(Cl)cc2)CC1` [Example 89, 1-(4-chlorophenyl)-N-[2-fluoro-3-(4-oxo-4,5,6,7-tetrahydro-3H-cyclopenta[d]pyrimidin-2-yl)-4-(trifluoromethyl)benzyl]piperidine-4-carboxamide], the pIC50 under setting [2] was more than 9.00.
The same measure, in the same setting: the result for `Cc1cc(=O)[nH]c(-c2c(C(F)(F)F)ccc(CNC(=O)[C@H]3CC[C@H](OCc4ccc(Cl)cc4F)CC3)c2F)n1` [Example 121, trans-4-[(4-chloro-2-fluorobenzyl)oxy]-N-[2-fluoro-3-(4-methyl-6-oxo-1,6-dihydropyrimidin-2-yl)-4-(trifluoromethyl)benzyl]cyclohexane-1-carboxamide] reads more than 9.00.
Regarding `O=C(NCc1ccc(C(F)(F)F)c(-c2nc(C(F)(F)F)cc(=O)[nH]2)c1F)C1CCN(c2cccc(C(F)F)c2)CC1` [Example 65, 1-[3-(difluoromethyl)phenyl]-N-{2-fluoro-3-[6-oxo-4-(trifluoromethyl)-1,6-dihydropyrimidin-2-yl]-4-(trifluoromethyl)benzyl}piperidine-4-carboxamide], the pIC50 under setting [2] was more than 9.00.
In the case of `CCc1nc(-c2c(C(F)(F)F)ccc(CNC(=O)[C@H]3C[C@H](OCc4ccc(Cl)cc4F)C3)c2F)[nH]c(=O)c1F` [Example 236, trans-3-[(4-chloro-2-fluorobenzyl)oxy]-N-[3-(4-ethyl-5-fluoro-6-oxo-1,6-dihydropyrimidin-2-yl)-2-fluoro-4-(trifluoromethyl)benzyl]cyclobutane-1-carboxamide], the negative logarithm of the IC50 (pIC50) under setting [1] was more than 9.00.
Regarding `Cc1cc(=O)[nH]c(-c2c(C(F)(F)F)ccc(CNC(=O)[C@H]3C[C@H](OCc4ccc(F)cc4Cl)C3)c2F)n1` [Example 190, trans-3-[(2-chloro-4-fluorobenzyl)oxy]-N-[2-fluoro-3-(4-methyl-6-oxo-1,6-dihydropyrimidin-2-yl)-4-(trifluoromethyl)benzyl]cyclobutane-1-carboxamide], under setting [1], the negative-log IC50 (pIC50) was more than 9.00.
`Cc1nc(-c2c(C(F)(F)F)ccc(CNC(=O)[C@H]3CC[C@H](OCc4ccccc4Cl)CC3)c2F)[nH]c(=O)c1F` [Example 102, trans-4-[(2-chlorobenzyl)oxy]-N-[2-fluoro-3-(5-fluoro-4-methyl-6-oxo-1,6-dihydropyrimidin-2-yl)-4-(trifluoromethyl)benzyl]cyclohexane-1-carboxamide]: the pIC50 under setting [2] is more than 9.00.
Consider `O=C(NCc1ccc(C(F)(F)F)c(-c2nc(C(F)(F)F)cc(=O)[nH]2)c1F)C1CCN(c2ccc(OC(F)F)cc2)CC1` [Example 71, 1-[4-(difluoromethoxy)phenyl]-N-{2-fluoro-3-[6-oxo-4-(trifluoromethyl)-1,6-dihydropyrimidin-2-yl]-4-(trifluoromethyl)benzyl}piperidine-4-carboxamide], for which the pIC50 under setting [2] is 8.00.
Same read-out and setting: the result for `Cc1cccc2ccc(N3CCC(C(=O)NCc4ccc(C(F)(F)F)c(-c5nccc(=O)[nH]5)c4F)CC3)nc12` [Example 7, N-[2-fluoro-3-(6-oxo-1,6-dihydropyrimidin-2-yl)-4-(trifluoromethyl)benzyl]-1-(8-methylquinolin-2-yl)piperidine-4-carboxamide] reads more than 9.00.
Turning to `Cc1cccc2ccc(N3CCC(C(=O)NCc4ccc(Cl)c(-c5nccc(=O)[nH]5)c4)CC3)nc12` [Example 8, N-[4-chloro-3-(6-oxo-1,6-dihydropyrimidin-2-yl)benzyl]-1-(8-methylquinolin-2-yl)piperidine-4-carboxamide], the pIC50 under setting [2] was 9.19.
For `O=c1cc(C(F)F)nc(-c2c(C(F)(F)F)ccc(CNC(=O)[C@H]3C[C@H](OCc4cccc(F)c4F)C3)c2F)[nH]1` [Example 172, trans-3-[(2,3-difluorobenzyl)oxy]-N-{3-[4-(difluoromethyl)-6-oxo-1,6-dihydropyrimidin-2-yl]-2-fluoro-4-(trifluoromethyl)benzyl}cyclobutane-1-carboxamide], the pIC50 under setting [1] is more than 9.00.
For `O=C(NCc1ccc(C(F)(F)F)c(-c2nc(C(F)(F)F)cc(=O)[nH]2)c1F)C1CCN(c2ccccn2)CC1` [Example 19, N-{2-fluoro-3-[6-oxo-4-(trifluoromethyl)-1,6-dihydropyrimidin-2-yl]-4-(trifluoromethyl)benzyl}-1-(pyridin-2-yl)piperidine-4-carboxamide], the pIC50 under setting [2] was more than 9.00.
For the compound `O=C(NCc1ccc(C(F)(F)F)c(-c2nc(C(F)(F)F)cc(=O)[nH]2)c1F)N1CCC(Oc2ccc(C(F)(F)F)cc2)CC1` [Example 260, N-{2-fluoro-3-[6-oxo-4-(trifluoromethyl)-1,6-dihydropyrimidin-2-yl]-4-(trifluoromethyl)benzyl}-4-[4-(trifluoromethyl)phenoxy]piperidine-1-carboxamide], the negative logarithm of the IC50 (pIC50) under setting [1] was more than 9.00.
`O=C(NCc1ccc(C(F)(F)F)c(-c2nc(C(F)(F)F)cc(=O)[nH]2)c1F)C1CCN(c2ccc(OC(F)(F)F)cc2)CC1` [Example 68, N-{2-fluoro-3-[6-oxo-4-(trifluoromethyl)-1,6-dihydropyrimidin-2-yl]-4-(trifluoromethyl)benzyl}-1-[4-(trifluoromethoxy)phenyl]piperidine-4-carboxamide]: the pIC50 under setting [2] was more than 9.00.
On the same count and under the same terms, the result for `O=C(NCc1ccc(C(F)(F)F)c(-c2nc(C(F)(F)F)cc(=O)[nH]2)c1F)C1CCN(c2cc(Cl)cc(Cl)c2)CC1` [Example 82, 1-(3,5-dichlorophenyl)-N-{2-fluoro-3-[6-oxo-4-(trifluoromethyl)-1,6-dihydropyrimidin-2-yl]-4-(trifluoromethyl)benzyl}piperidine-4-carboxamide] reads 8.09; that for `Cc1cc(=O)[nH]c(-c2c(C(F)(F)F)ccc(CNC(=O)C3CCN(c4ccc(Cl)c(Cl)c4)CC3)c2F)n1` [Example 86, 1-(3,4-dichlorophenyl)-N-[2-fluoro-3-(4-methyl-6-oxo-1,6-dihydropyrimidin-2-yl)-4-(trifluoromethyl)benzyl]piperidine-4-carboxamide], more than 9.00.
The same measure, in the same setting: then `O=c1cc(C(F)(F)F)nc(-c2c(C(F)(F)F)ccc(CNC(=O)[C@H]3C[C@H](OCc4cccc(C(F)(F)F)c4)C3)c2F)[nH]1` [Example 144, trans-N-{2-fluoro-3-[6-oxo-4-(trifluoromethyl)-1,6-dihydropyrimidin-2-yl]-4-(trifluoromethyl)benzyl}-3-{[3-(trifluoromethyl)benzyl]oxy}cyclobutane-1-carboxamide], with more than 9.00.
